Reference: patent US10160783B2, “Neuroactive 13, 17-substituted steroids as modulators for GABA type-A receptors” (priority 2013, dated 2018)
Like-named read-outs stand apart in the source and are kept apart here.

Assays:
[1] = target: picrotoxin binding site on GABAA receptors; assay: [35S]-TBPS displacement (inhibition of [35S]-TBPS binding); settings: non-competitive displacement of [35S]-TBPS; ± SEM, duplicate experiments in triplicate
Method: The IC50 values for non-competitive displacers of [^35S]-TBPS from the picrotoxin binding site on GABAA receptors are reported in Table 1.
Results presented are from duplicate experiments performed in triplicate. Error limits are calculated as standard error of the mean. Methods used are known in the art (see Jiang, X., et al., Neurosteroid analogues. 9. Conformationally constrained pregnanes: structure-activity studies of 13,24-cyclo-18,21-dinorcholane analogues of the GABA modulatory and anesthetic steroids (3α,5α)- and […]. J. Med. Chem., 46: 5334-48 (2003)—the contents of which are hereby incorporated by reference in their entirety).

[2] = target: T1, rat α1β2γ2L type GABAA receptors expressed in Xenopus laevis oocytes (Rattus norvegicus, UniProt P18508+P62813+P63138, INS375LLRMFSFK); assay: Potentiation of GABA-mediated chloride currents and direct gating, oocyte electrophysiology; type: cell-based; settings: ± SEM, N ≥ 4; for oocyte electrophysiology 0.1 μM: ratio of currents measured in the presence/absence of added compound: 0.1 μM compound; for oocyte electrophysiology 0.1 μM: ratio of currents measured in the presence/absence of added compound / oocyte electrophysiology 1 μM: ratio of currents measured in the presence/absence of added compound / oocyte electrophysiology 10 μM: ratio of currents measured in the presence/absence of added compound: 2 μM GABA control response; for oocyte electrophysiology 1 μM: ratio of currents measured in the presence/absence of added compound: 1 μM compound; for oocyte electrophysiology 10 μM: ratio of currents measured in the presence/absence of added compound: 10 μM compound; for (gating) 10 μM: ratio of compound only current/2 μM GABA current: direct current gated by 10 μM compound in the absence of GABA
T1 construct: expressed in transfected cells; host or cells: Xenopus laevis oocytes
T1 sequence (P62813 28-455, stated change not applied): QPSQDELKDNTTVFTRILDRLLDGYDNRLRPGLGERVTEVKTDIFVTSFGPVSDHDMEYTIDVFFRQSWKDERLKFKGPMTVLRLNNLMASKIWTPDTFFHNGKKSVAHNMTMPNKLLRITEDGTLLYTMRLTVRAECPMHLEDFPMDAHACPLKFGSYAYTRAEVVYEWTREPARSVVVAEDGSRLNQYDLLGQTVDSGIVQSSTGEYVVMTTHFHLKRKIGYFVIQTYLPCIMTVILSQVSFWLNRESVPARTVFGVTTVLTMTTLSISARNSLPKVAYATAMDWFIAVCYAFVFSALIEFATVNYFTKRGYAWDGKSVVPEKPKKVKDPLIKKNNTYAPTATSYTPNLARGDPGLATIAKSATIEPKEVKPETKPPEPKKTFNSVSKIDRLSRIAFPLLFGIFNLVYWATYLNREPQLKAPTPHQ
T1 sequence (P63138 26-474, stated change not applied): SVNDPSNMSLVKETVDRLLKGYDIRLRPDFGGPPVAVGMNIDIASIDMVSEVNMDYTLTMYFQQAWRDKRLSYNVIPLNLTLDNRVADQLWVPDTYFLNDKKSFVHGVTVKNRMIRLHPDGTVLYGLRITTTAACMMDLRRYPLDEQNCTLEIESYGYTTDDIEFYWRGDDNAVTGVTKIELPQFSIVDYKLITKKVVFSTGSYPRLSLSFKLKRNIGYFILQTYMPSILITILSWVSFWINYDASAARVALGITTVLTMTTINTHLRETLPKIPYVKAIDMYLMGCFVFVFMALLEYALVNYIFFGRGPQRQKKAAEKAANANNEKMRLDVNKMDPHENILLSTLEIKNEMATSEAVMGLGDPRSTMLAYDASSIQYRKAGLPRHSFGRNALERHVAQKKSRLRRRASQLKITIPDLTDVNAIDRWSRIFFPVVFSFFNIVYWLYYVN
T1 sequence (P18508 with tags, fused parts or gaps INS375LLRMFSFK): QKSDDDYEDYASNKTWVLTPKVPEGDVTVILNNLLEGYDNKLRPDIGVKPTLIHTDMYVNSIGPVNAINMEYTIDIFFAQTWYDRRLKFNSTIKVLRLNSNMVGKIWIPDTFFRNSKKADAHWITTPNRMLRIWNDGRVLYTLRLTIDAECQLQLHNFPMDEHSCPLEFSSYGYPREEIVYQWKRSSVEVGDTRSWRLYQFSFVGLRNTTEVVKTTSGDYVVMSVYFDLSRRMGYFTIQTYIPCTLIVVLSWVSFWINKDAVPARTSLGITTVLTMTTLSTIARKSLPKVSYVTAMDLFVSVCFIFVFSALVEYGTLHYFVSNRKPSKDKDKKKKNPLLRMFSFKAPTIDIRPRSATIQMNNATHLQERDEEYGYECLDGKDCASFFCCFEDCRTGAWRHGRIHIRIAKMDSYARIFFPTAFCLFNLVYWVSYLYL
Method: The compounds of the present disclosure were evaluated for the ability to potentiate chloride currents mediated by 2 μM GABA at rat α1β2γ2L type GABAA receptors expressed in Xenopus laevis oocytes and the results are shown in Table 2.

[3] = tested on: Tadpole; assay: Tadpole loss of righting reflex (LRR) and loss of swimming reflex (LSR); type: in vivo; settings: ± SEM
Method: Table 3 discloses the anesthetic effects of the compounds of the present disclosure. In particular, the anesthetic effect of the compounds of the present disclosure on Loss of Righting Reflex (LRR) and Loss of Swimming Reflex (LSR).
Methods used are known in the art (see Jiang, X., et al.). Error limits are calculated as standard error of the mean (N=10 or more animals at each of five or more different concentrations).

[4] = loss of righting reflex, read-out: Tadpole LRR EC50
[5] = loss of swimming reflex, read-out: Tadpole LSR EC50

SMILES	IC50 [1] [nM]	oocyte electrophysiology 0.1 μM: ratio of currents measured in the presence/absence of added compound [2]	oocyte electrophysiology 1 μM: ratio of currents measured in the presence/absence of added compound [2]	oocyte electrophysiology 10 μM: ratio of currents measured in the presence/absence of added compound [2]	(gating) 10 μM: ratio of compound only current/2 μM GABA current [2]	EC50 [3, 4] [nM]	EC50 [3, 5] [nM]	melting point [°C]	Tadpole LSR EC50 (μM) ([3]; loss of swimming reflex)
C=C[C@H]1CC[C@H]2[C@@H]3CC[C@H]4C[C@H](O)CC[C@]4(COC)[C@H]3CC[C@]12C(C)=O [KK-145, 1-[(3α,5α)-3-Hydroxy-19-methoxy-18-norpregn-20-en-13-yl]ethanone]	53 ± 4	1.75 ± 0.14	13.74 ± 3.71	35.57 ± 12.85	0.56 ± 0.07	140 ± 10	550 ± 10	124 to 126	–
C=C[C@]12CC[C@H]3[C@@H](CC[C@H]4C[C@H](O)CC[C@@]43C)[C@@H]1CC[C@@H]2C(C)=O [ZYC-75]	–	–	–	–	–	670 ± 10	2640 ± 10	146 to 147	–
CC[C@H]1CC[C@H]2[C@@H]3CC[C@H]4C[C@H](O)CC[C@]4(C)[C@H]3CC[C@]12C(C)=O [XJ-100, 1-[(3α,5α)-3-Hydroxy-18-norpregnan-13-yl]ethanone]	276 ± 130	1.33 ± 0.20	5.01 ± 0.89	8.41 ± 0.66	−0.06 ± 0.06	460 ± 160	> 10000	182 to 184	–
C=C[C@H]1CC[C@H]2[C@@H]3CC[C@H]4C[C@H](O)CC[C@]4(C)[C@H]3CC[C@]12C(C)=O [XJ-99, 1-[(3α,5α)-3-Hydroxy-18-norpregn-20-en-13-yl]ethanone]	43 ± 12	1.73 ± 0.20	3.96 ± 0.99	4.37 ± 1.28	0.07 ± 0.02	50	140	178 to 179.5	–
CC(=O)[C@H]1CC[C@H]2[C@@H]3CC[C@H]4C[C@H](O)CC[C@]4(C)[C@H]3CC[C@]12C(C)=O [ZYC-71, (3α,5α)-13-Acetyl-3-hydroxy-18-norpregnan-20-one]	82 ± 7	1.82 ± 0.03	9.31 ± 0.46	19.44 ± 1.69	0.22 ± 0.01	1730 ± 10	5480 ± 150	180 to 181	–
C=C[C@H]1CC[C@H]2[C@@H]3CC[C@H]4C[C@H](O)CC[C@]4(C)[C@H]3[C@@H](OC)C[C@]12C(C)=O [KK-144, 1-[(3α,5α,11β)-3-Hydroxy-11-methoxy-18-norpregn-20-en-13-yl]ethanone]	72 ± 16	1.40 ± 0.11	5.38 ± 0.55	10.59 ± 1.31	0.18 ± 0.02	180 ± 10	550 ± 10	127 to 129	–
C=C[C@H]1CC[C@H]2[C@@H]3C[C@@H](OC)[C@H]4C[C@H](O)CC[C@]4(C)[C@H]3CC[C@]12C(C)=O [KK-143, 1-[(3α,5α,6β)-3-Hydroxy-6-methoxy-18-norpregn-20-en-13-yl]ethanone]	270 ± 19	1.23 ± 0.06	2.93 ± 0.30	8.43 ± 0.69	0.07 ± 0.02	610 ± 60	1730 ± 30	158 to 160	–
CC(=O)[C@]12CC[C@H]3[C@@H](CC[C@H]4C[C@H](O)CC[C@@]43C)[C@@H]1CC[C@@H]2[C@@H](C)O [ZYC-72, (3α,5α,20R)-13-Acetyl-18-norpregnane-3,20-diol]	978 ± 618	0.80 ± 0.08	1.30 ± 0.11	2.78 ± 0.37	−0.03 ± 0.11	3060	> 10000	159 to 161	–
CC(=O)[C@]12CC[C@H]3[C@@H](CC[C@H]4C[C@H](O)CC[C@@]43C)[C@@H]1CC[C@@H]2CCl [ZYC-74, 1-[(3α,5α,17β)-17-Chloromethy-3-hydroxy-18-norandrostan-13-yl]ethanone]	415 ± 83	1.06 ± 0.04	1.98 ± 0.21	9.38 ± 1.71	0.03 ± 0.01	3330 ± 1410	5480 ± 200	161 to 162	–
C=C[C@]12CC[C@H]3[C@@H](CC[C@H]4C[C@H](O)CC[C@@]43C)[C@@H]1CC[C@@H]2[C@@H](C)O [ZYC-76, (3α,5α,20R)-13-Ethenyl-18-norpregnan-3,20-diol]	497 ± 59	1.00 ± 0.01	1.56 ± 0.13	7.28 ± 1.76	0.04 ± 0.02	742000 ± 202000	1740 ± 30	193 to 195	–
C=C[C@H]1CC[C@H]2[C@@H]3CC[C@H]4C[C@H](O)[C@@H](OC)C[C@]4(C)[C@H]3CC[C@]12C(C)=O [KK-140, 1-[(2β,3α,5α)-3-Hydroxy-2-Methoxy-18-norpregn-20-en-13-yl]ethanone]	17 ± 3	5.39 ± 2.76	11.90 ± 1.08	17.29 ± 2.10	0.27 ± 0.06	50	300	155 to 157	–
CC(=O)[C@]12CC[C@H]3[C@@H](CC[C@H]4C[C@H](O)CC[C@@]43C)[C@@H]1CC[C@@H]2CO [ZYC-73, 1-[(3α,5α,17β)-3-Hydroxy-17-hydroxymethyl-18-norandrostan-13-yl]ethanone]	1460	1.07 ± 0.15	1.42 ± 0.16	6.16 ± 0.71	–	> 10000	–	166 to 168	None
